Data from patent US20140093935A1, “CHARGED TRIPLET-STATE QUENCHERS FOR MITIGATION OF PHOTO-INDUCED DAMAGE” (Pacific Biosciences of California, Inc., priority 2012, published 2014).

Experiments:
[1] = test system: fluorophore blinking; test: Sequencing-by-synthesis assay, interpulse duration / very short dark periods (blinkiness); format: biochemical; conditions: 3 μM and 5 μM of compound compared with 1 mM of the charged nitrophenyl photoprotective moiety; FIG. 7
Method: One measure of photoprotective benefit is monitoring “blinkiness” of dyes in a reaction mixture. For example, in a reaction in which dye-labeled reactants are being observed as they cyclically interact with an unlabeled reactant, the time between interaction events is a length of time during which no dye is present, or a “dark” period. Given certain reaction parameters, e.g., diffusion rates and concentration of the labeled reactant, a distribution of dark periods is measured that centers around a value that is an average time between interaction events. This distribution curve can be perturbed by dye blinking since such blinking introduces a very brief dark period during an interaction event. These blinking-induced dark periods introduce an aberrant peak in the dark period distribution resulting in a peak that is outside of the normal distribution and representing dark periods that are too short to be explained by the reaction parameters. Blinkiness is increased when a dye is excited to the triplet state and there is insufficient photo-induced damage mitigation to quickly return it to a non-triplet state. […]
Experiments were conducted using a single-molecule, real-time (SMRT®) sequencing instrument. […] Sequencing was initiated and reactions were monitored in real time. The fluorescence emissions were recorded, processed, and analyzed. […]

[2] = test system: phi29 polymerase enzyme; test: Sequencing-by-synthesis assay, polymerase survival as a function of number of bases sequenced; format: biochemical
Description: In various embodiments, the amount of photo-induced damage that occurs in a reaction mixture of the invention is detectably less than the amount of photo-induced damage that occurs in the absence of a photoprotective additive according to Formula I or Formula II. Photo-induced damage can be measured in different ways, depending on the particular analytical reaction. One way is by monitoring blinkiness of a fluorescent dye in the reaction, as further explained above. In other embodiments, the amount of photo-induced damage is measured as a length of time a reaction can proceed, e.g., the survival time for an enzyme catalyzing a reaction. For example, in a nucleic acid sequencing-by-synthesis reaction, a proxy for the level of photo-induced damage can be the length of the nascent strand synthesized and/or the length of the sequencing read generated. […]
Experiments were conducted using a single-molecule, real-time (SMRT®) sequencing instrument. […] Sequencing was initiated and reactions were monitored in real time. The fluorescence emissions were recorded, processed, and analyzed.
Further analysis of the fluorescent emissions included measurement of polymerase enzyme survival in the reaction as a function of number of bases sequenced. Another measure of photo-induced damage was the average read length produced in the sequencing reaction.

O=C(CNc1cccc([N+](=O)[O-])c1)NCCCCCCOP(=O)(O)OP(=O)(O)OP(=O)(O)OP(=O)(O)OP(=O)(O)O [TSQ001-6C-5P]
reducing the incidence of very short dark periods (proxy for blinkiness) [1]: as effective
increasing survival of a polymerase enzyme ([2]; 1.5, 3, and 5 μM of compound compared with 1 mM of the charged nitrophenyl photoprotective moiety, FIG. 8): more effective
polymerase survival in a sequencing-by-synthesis reaction is increased ([2]; as compared to the photoprotective moiety alone, by various measures (data not shown)): 15-25%
